Source: PubChem BioAssay AID256 (DTP/NCI, 2004)
Values joined by “and” are separate entries in the source; they are usually repeats but may differ in a detail not shown here. Equal values may be shown once. Toxic doses and inconclusive results are not listed.

Test system: CD2F1 mice, L1210 leukemia ip, survival T/C
Assay: NCI In Vivo Anticancer Drug Screen. Data for tumor model L1210 Leukemia (intraperitoneal) in CD2F1 (CDF1) mice
Conditions: higher = longer survival
Procedure, shortened: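 Mice carrying a transplanted tumor received test compound or vehicle alone. The value is the measurement in the treated group divided by that in the vehicle-treated control group.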

[1] = endpoint: mean survival time, dose: 100.0 mg/kg/injection, schedule: Q01DX009 (ip), vehicle: saline
[2] = endpoint: mean survival time, dose: 100.0 mg/kg/injection, schedule: Q04DX003 (ip), vehicle: saline
[3] = endpoint: mean survival time, dose: 200.0 mg/kg/injection, schedule: Q01DX009 (ip), vehicle: saline
[4] = endpoint: mean survival time, dose: 200.0 mg/kg/injection, schedule: Q04DX003 (ip), vehicle: saline
[5] = endpoint: mean survival time, dose: 400.0 mg/kg/injection, schedule: Q04DX003 (ip), vehicle: saline
[6] = endpoint: mean survival time, dose: 100.0 mg/kg/injection, schedule: Q04DX002 (ip), vehicle: other
[7] = endpoint: mean survival time, dose: 200.0 mg/kg/injection, schedule: Q04DX002 (ip), vehicle: other
[8] = endpoint: mean survival time, dose: 400.0 mg/kg/injection, schedule: Q04DX002 (ip), vehicle: other
[9] = endpoint: mean survival time, dose: 100.0 mg/kg/injection, schedule: Q01DX001 (ip), vehicle: saline with Tween-80
[10] = endpoint: mean survival time, dose: 200.0 mg/kg/injection, schedule: Q01DX001 (ip), vehicle: saline with Tween-80

## c1cc2n(n1)CCN2
endpoint: mean survival time, dose: 8.0 mg/kg/injection, schedule: Q03HX008 (ip), vehicle: saline
  T/C: 95 % of control
endpoint: mean survival time, dose: 8.0 mg/kg/injection, schedule: Q03HX016 (ip), vehicle: saline
  T/C: 96 % of control
endpoint: mean survival time, dose: 8.0 mg/kg/injection, schedule: Q03HX024 (ip), vehicle: saline
  T/C: 102 % of control
endpoint: mean survival time, dose: 16.0 mg/kg/injection, schedule: Q03HX008 (ip), vehicle: saline
  T/C: 98 % of control
endpoint: mean survival time, dose: 16.0 mg/kg/injection, schedule: Q03HX016 (ip), vehicle: saline
  T/C: 97 % of control
endpoint: mean survival time, dose: 16.0 mg/kg/injection, schedule: Q03HX024 (ip), vehicle: saline
  T/C: 104 % of control
endpoint: mean survival time, dose: 25.0 mg/kg/injection, schedule: Q01DX009 (ip), vehicle: saline
  T/C: 103 % of control
endpoint: mean survival time, dose: 32.0 mg/kg/injection, schedule: Q01DX005 (ip), vehicle: saline
  T/C: 100 % of control
endpoint: mean survival time, dose: 32.0 mg/kg/injection, schedule: Q03HX008 (ip), vehicle: saline
  T/C: 102 % of control
endpoint: mean survival time, dose: 32.0 mg/kg/injection, schedule: Q03HX016 (ip), vehicle: saline
  T/C: 98 % of control
endpoint: mean survival time, dose: 32.0 mg/kg/injection, schedule: Q03HX024 (ip), vehicle: saline
  T/C: 107 % of control
endpoint: mean survival time, dose: 50.0 mg/kg/injection, schedule: Q04DX003 (ip), vehicle: saline
  T/C: 98 % of control
endpoint: mean survival time, dose: 50.0 mg/kg/injection, schedule: Q04DX003 (iv), vehicle: saline
  T/C: 98 % of control
endpoint: mean survival time, dose: 64.0 mg/kg/injection, schedule: Q01DX005 (ip), vehicle: saline
  T/C: 103 % of control
endpoint: mean survival time, dose: 64.0 mg/kg/injection, schedule: Q01DX009 (ip), vehicle: saline
  T/C: 97 % of control
endpoint: mean survival time, dose: 64.0 mg/kg/injection, schedule: Q03HX008 (ip), vehicle: saline
  T/C: 109 % of control
endpoint: mean survival time, dose: 64.0 mg/kg/injection, schedule: Q03HX016 (ip), vehicle: saline
  T/C: 102 % of control
endpoint: mean survival time, dose: 64.0 mg/kg/injection, schedule: Q03HX024 (ip), vehicle: saline
  T/C: 116 % of control
[1]
  T/C: 120 % of control
[2]
  T/C: 102 % of control
endpoint: mean survival time, dose: 100.0 mg/kg/injection, schedule: Q04DX003 (ip), vehicle: water
  T/C: 120 % of control and 105 % of control
endpoint: mean survival time, dose: 100.0 mg/kg/injection, schedule: Q04DX003 (iv), vehicle: saline
  T/C: 98 % of control
endpoint: mean survival time, dose: 128.0 mg/kg/injection, schedule: Q01DX001 (ip), vehicle: saline
  T/C: 104 % of control
endpoint: mean survival time, dose: 128.0 mg/kg/injection, schedule: Q01DX005 (ip), vehicle: saline
  T/C: 114 % of control
endpoint: mean survival time, dose: 128.0 mg/kg/injection, schedule: Q01DX009 (ip), vehicle: saline
  T/C: 122 % of control
endpoint: mean survival time, dose: 128.0 mg/kg/injection, schedule: Q04DX003 (ip), vehicle: saline
  T/C: 105 % of control
endpoint: mean survival time, dose: 128.0 mg/kg/injection, schedule: Q08DX002 (ip), vehicle: saline
  T/C: 104 % of control
[3]
  T/C: 118 % of control
[4]
  T/C: 108 % of control
endpoint: mean survival time, dose: 200.0 mg/kg/injection, schedule: Q04DX003 (ip), vehicle: water
  T/C: 115 % of control and 120 % of control
endpoint: mean survival time, dose: 200.0 mg/kg/injection, schedule: Q04DX003 (iv), vehicle: saline
  T/C: 101 % of control
endpoint: mean survival time, dose: 256.0 mg/kg/injection, schedule: Q01DX001 (ip), vehicle: saline
  T/C: 110 % of control
endpoint: mean survival time, dose: 256.0 mg/kg/injection, schedule: Q01DX005 (ip), vehicle: saline
  T/C: 107 % of control
endpoint: mean survival time, dose: 256.0 mg/kg/injection, schedule: Q01DX009 (ip), vehicle: saline
  T/C: 100 % of control
endpoint: mean survival time, dose: 256.0 mg/kg/injection, schedule: Q08DX002 (ip), vehicle: saline
  T/C: 106 % of control
[5]
  T/C: 124 % of control
endpoint: mean survival time, dose: 400.0 mg/kg/injection, schedule: Q04DX003 (ip), vehicle: water
  T/C: 153 % of control
endpoint: mean survival time, dose: 512.0 mg/kg/injection, schedule: Q04DX003 (ip), vehicle: saline
  T/C: 159 % of control
endpoint: mean survival time, dose: 512.0 mg/kg/injection, schedule: Q08DX002 (ip), vehicle: saline
  T/C: 165 % of control
endpoint: mean survival time, dose: 600.0 mg/kg/injection, schedule: Q04DX003 (ip), vehicle: water
  T/C: 101 % of control

## CCc1ccc2c(c1)N(CCCN(CCCl)CCCl)c1ccccc1S2
endpoint: mean survival time, dose: 18.0 mg/kg/injection, schedule: Q01DX001 (ip), vehicle: saline
  T/C: 97 % of control
endpoint: mean survival time, dose: 28.0 mg/kg/injection, schedule: Q01DX001 (ip), vehicle: saline
  T/C: 108 % of control
endpoint: mean survival time, dose: 40.0 mg/kg/injection, schedule: Q01DX001 (ip), vehicle: saline
  T/C: 103 % of control
endpoint: mean survival time, dose: 60.0 mg/kg/injection, schedule: Q01DX001 (ip), vehicle: saline with Tween-80
  T/C: 90 % of control

## COc1cc([C@@H]2c3cc4c(cc3C[C@H]3COC(=O)[C@@H]32)OCO4)cc(OC)c1OC
endpoint: mean survival time, dose: 6.25 mg/kg/injection, schedule: Q01DX015 (ip), vehicle: saline
  T/C: 111 % of control
endpoint: mean survival time, dose: 12.5 mg/kg/injection, schedule: Q01DX015 (ip), vehicle: saline
  T/C: 118 % of control
endpoint: mean survival time, dose: 25.0 mg/kg/injection, schedule: Q01DX015 (ip), vehicle: saline
  T/C: 106 % of control

## COc1cc(C2=NCCc3cc4c(cc32)OCO4)cc(OC)c1OC
endpoint: median survival time, dose: 6.25 mg/kg/injection, schedule: Q01DX009 (ip), vehicle: saline + alcohol
  T/C: 106 % of control
endpoint: median survival time, dose: 12.5 mg/kg/injection, schedule: Q01DX009 (ip), vehicle: saline + alcohol
  T/C: 105 % of control
endpoint: median survival time, dose: 12.5 mg/kg/injection, schedule: Q01DX009 (ip), vehicle: saline
  T/C: 97 % of control and 102 % of control
endpoint: median survival time, dose: 25.0 mg/kg/injection, schedule: Q01DX009 (ip), vehicle: saline + alcohol
  T/C: 107 % of control
endpoint: median survival time, dose: 25.0 mg/kg/injection, schedule: Q01DX009 (ip), vehicle: saline
  T/C: 93 % of control and 104 % of control
endpoint: median survival time, dose: 50.0 mg/kg/injection, schedule: Q01DX009 (ip), vehicle: saline + alcohol
  T/C: 106 % of control
endpoint: median survival time, dose: 50.0 mg/kg/injection, schedule: Q01DX009 (ip), vehicle: saline
  T/C: 105 % of control
endpoint: median survival time, dose: 100.0 mg/kg/injection, schedule: Q01DX009 (ip), vehicle: saline + alcohol
  T/C: 109 % of control
endpoint: median survival time, dose: 100.0 mg/kg/injection, schedule: Q01DX009 (ip), vehicle: saline
  T/C: 105 % of control

## Cc1ccc(C(=O)OCCN2CCN(c3ccccc3)CC2)c([N+](=O)[O-])c1OCc1ccccc1
[6]
  T/C: 98 % of control
[7]
  T/C: 91 % of control
[8]
  T/C: 91 % of control

## CCN=C(N)SCCS(=O)(=O)O
endpoint: mean survival time, dose: 100.0 mg/kg/injection, schedule: Q01DX005 (ip), vehicle: saline
  T/C: 103 % of control
[1]
  T/C: 97 % of control
endpoint: mean survival time, dose: 200.0 mg/kg/injection, schedule: Q01DX005 (ip), vehicle: saline
  T/C: 106 % of control
[3]
  T/C: 97 % of control
endpoint: mean survival time, dose: 400.0 mg/kg/injection, schedule: Q01DX005 (ip), vehicle: saline
  T/C: 95 % of control
endpoint: mean survival time, dose: 400.0 mg/kg/injection, schedule: Q01DX009 (ip), vehicle: saline
  T/C: 97 % of control

## C1CCC(CCCC(CCCC2CCCCC2)CCCC2CCCCC2)CC1
[9]
  T/C: 94 % of control
[10]
  T/C: 91 % of control
endpoint: mean survival time, dose: 400.0 mg/kg/injection, schedule: Q01DX001 (ip), vehicle: saline with Tween-80
  T/C: 88 % of control

## Cc1nc2cc3ccccc3cc2n1C1OC(CO)C(O)C1O (stereo not drawn)
endpoint: median survival time, dose: 26.5 mg/kg/injection, schedule: Q01DX005 (ip), vehicle: saline with Tween-80
  T/C: 92 % of control
endpoint: median survival time, dose: 53.0 mg/kg/injection, schedule: Q01DX005 (ip), vehicle: saline with Tween-80
  T/C: 103 % of control
endpoint: median survival time, dose: 106.0 mg/kg/injection, schedule: Q01DX005 (ip), vehicle: saline with Tween-80
  T/C: 93 % of control
endpoint: median survival time, dose: 212.0 mg/kg/injection, schedule: Q01DX005 (ip), vehicle: saline with Tween-80
  T/C: 88 % of control

## CC1(CCO)NC(=O)NC1=O (stereo not drawn)
endpoint: mean survival time, dose: 100.0 mg/kg/injection, schedule: Q01DX009 (ip), vehicle: saline sonified
  T/C: 97 % of control
[2]
  T/C: 100 % of control
endpoint: mean survival time, dose: 200.0 mg/kg/injection, schedule: Q01DX009 (ip), vehicle: saline sonified
  T/C: 97 % of control
[4]
  T/C: 96 % of control
endpoint: mean survival time, dose: 400.0 mg/kg/injection, schedule: Q01DX009 (ip), vehicle: saline sonified
  T/C: 97 % of control
[5]
  T/C: 100 % of control

## O=C[c-]1[c-][c-][c-][c-]1.[Fe+2].[c-]1[c-][c-][cH-][c-]1
[9]
  T/C: 117 % of control
[10]
  T/C: 100 % of control

## CC1=C(c2ccccc2)C(=O)OC1=O
[6]
  T/C: 98 % of control
[7]
  T/C: 103 % of control
[8]
  T/C: 107 % of control
